Test results from US20170007595A1, “NSD3 INHIBITORS FOR TREATMENT OF CANCERS” (THE BRIGHAM AND WOMEN'S HOSPITAL, INC., priority 2014, published 2017).

What was measured:
[1] = test system: 1221 cells (NSD3-NUT-positive NMC); experiment: high throughput 384-well immunofluorescence analysis (keratin, Ki-67, cell number) of 1221 NMC cells; format: cell-based, human; conditions: 72 h, dose-dependent
Description: For TC-797, Per403, and 8645 cells, 7×10^6 cells were transfected with 50 nM siRNA using Nucleofector II (Lonza, Basel, Switzerland) and Amaxa solution R and plated in 100 mm cell culture dish. 1221 cells were transfected using RNAi-MAX (Invitrogen) using the manufacturer's protocol. Briefly, reverse transfection procedure was used to deliver 50 nM siRNA to 33×10^4 cells in a 6 well plate. Cells were analyzed for mRNA levels 24 h after transfection. Sequences of siRNA used were: siControl, ON-TARGET plus siRNA #1 (Dharmacon, Cat # D-001810-01-20), siNUT-1 (targeting coding sequence) […] (SEQ ID NO: 57), siNUT-2 (targeting the 3′ UTR) […] (SEQ ID NO: 58), siBRD4 5′ siGENOME Human BRD4 (Dharmacon Cat # D-004937-02), siBRD4 3′ […] (SEQ ID NO: 59), siNSD3-6 ON-TARGETplus Human WHSC1L1 (54904) (Dharmacon Cat # J-012875-06), siNSD3-7, ON-TARGETplus Human WHSC1L1 (54904) siRNA (Dharmacon Cat # J-012875-07), siNSD3 3′-1 […] (SEQ ID NO: 15), si NSD3 3′-2 […] […]
Cells were transfected in 384 well format using 50 nM control siRNA (above), NSD3 siRNA (above), BRD4 siRNA, and NUT siRNA (above), as described (6), or a dose range of JQ1 treatment. […] Each condition was performed in triplicate in 384-well plate format in three separate experiments, where wells were analyzed using MetaXpress with Multi Wavelength Cell Scoring for cell number, average keratin fluorescence pixel intensity, and % Ki-67 per well. […]

[2] = test system: macrophages; conditions: cited from earlier work
[3] = test system: BET Bromodomains; conditions: cited from earlier work
[4] = molecular target: T1, NSD3 (endogenous, wild type) (human, UniProt Q9BZ95 1-1437, limits assumed); experiment: anti-HA co-immunoprecipitation from C33A-6TR lysates, Western blot with anti-NSD3
T1 construct: Endogenous protein of cell lysates detected with an anti-NSD3 antibody; also called wild type NSD3; WHSC1L1
T1 sequence: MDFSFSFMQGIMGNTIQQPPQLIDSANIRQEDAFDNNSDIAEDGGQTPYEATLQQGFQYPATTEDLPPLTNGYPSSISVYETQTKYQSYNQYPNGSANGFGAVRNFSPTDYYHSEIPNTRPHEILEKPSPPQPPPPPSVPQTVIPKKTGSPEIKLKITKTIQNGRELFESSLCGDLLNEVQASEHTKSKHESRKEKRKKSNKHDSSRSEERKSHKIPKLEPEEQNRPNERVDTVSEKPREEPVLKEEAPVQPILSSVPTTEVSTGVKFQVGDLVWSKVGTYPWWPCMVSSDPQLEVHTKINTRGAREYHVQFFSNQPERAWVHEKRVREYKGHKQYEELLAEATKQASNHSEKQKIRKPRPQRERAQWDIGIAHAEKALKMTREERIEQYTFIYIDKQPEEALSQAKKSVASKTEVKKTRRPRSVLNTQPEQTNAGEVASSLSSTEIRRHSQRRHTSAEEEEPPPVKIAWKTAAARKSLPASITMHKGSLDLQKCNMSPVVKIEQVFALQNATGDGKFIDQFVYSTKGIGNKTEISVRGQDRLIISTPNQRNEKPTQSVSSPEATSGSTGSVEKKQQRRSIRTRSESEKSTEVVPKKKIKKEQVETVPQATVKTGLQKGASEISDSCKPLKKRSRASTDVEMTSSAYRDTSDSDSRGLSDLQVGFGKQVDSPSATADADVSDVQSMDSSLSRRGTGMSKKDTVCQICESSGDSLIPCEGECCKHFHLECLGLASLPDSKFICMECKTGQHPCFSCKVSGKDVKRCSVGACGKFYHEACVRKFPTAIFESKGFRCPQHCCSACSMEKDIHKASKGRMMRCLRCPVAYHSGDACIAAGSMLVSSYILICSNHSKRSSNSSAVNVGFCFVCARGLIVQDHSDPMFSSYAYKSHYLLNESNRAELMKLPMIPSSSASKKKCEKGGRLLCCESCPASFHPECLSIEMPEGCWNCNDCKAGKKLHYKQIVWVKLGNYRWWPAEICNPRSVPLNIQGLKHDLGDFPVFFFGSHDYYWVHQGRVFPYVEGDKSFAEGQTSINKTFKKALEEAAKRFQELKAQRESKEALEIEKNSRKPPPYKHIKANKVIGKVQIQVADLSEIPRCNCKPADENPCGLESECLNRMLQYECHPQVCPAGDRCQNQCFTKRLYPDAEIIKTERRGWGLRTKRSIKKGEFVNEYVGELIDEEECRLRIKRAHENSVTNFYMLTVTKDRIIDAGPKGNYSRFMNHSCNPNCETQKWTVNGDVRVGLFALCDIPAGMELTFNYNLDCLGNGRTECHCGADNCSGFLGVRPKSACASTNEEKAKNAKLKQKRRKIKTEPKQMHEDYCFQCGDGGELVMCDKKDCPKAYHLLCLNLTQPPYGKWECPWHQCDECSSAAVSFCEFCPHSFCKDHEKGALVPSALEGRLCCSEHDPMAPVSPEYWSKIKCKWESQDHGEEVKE
Description: For co-immunoprecipitation experiments of HA-tagged proteins, C33A-6TR cells stably expressing HA-tagged constructs under a Tet-inducible promoter were used. Protein extracts were prepared 24 h after transfection or induction with Doxycycline (1 μg/ml). Cells were lysed in lysis buffer (50 mM Tris-HCl [pH 7.5], 150 mM NaCl, 0.5% Nonidet P-40) with freshly added protease inhibitors (Roche Complete, EDTA free protease inhibitor cocktail, Roche, Indianapolis, Ind.). Extracts were adjusted for protein concentration and 10% of extracts were used as Input Immunoprecipitations were performed using 15 μl of HA-resin (Sigma A2095). Extracts were incubated overnight at 4° C., and precipitated proteins were detected by Western blot analysis.

## Cc1sc2c(c1C)C(c1ccc(Cl)cc1)=N[C@@H](CC(=O)OC(C)(C)C)c1nnc(C)n1-2 [JQ1, (S)-tert-butyl 2-(4-(4-chlorophenyl)-2,3,9-trimethyl-6H-thieno[3,2-f][1,2,4]triazolo[4,3-a][1,4]diazepin-6-yl)acetate]
[1]; dose range of JQ1 vs DMSO
  differentiation (keratin intensity): results in differentiation
[1]; increasing concentrations of JQ1 vs DMSO
  proliferation (cell number): arrested proliferation

## CCNC(=O)C[C@@H]1N=C(c2ccc(Cl)cc2)c2cc(OC)ccc2-n2c(C)nnc21 [I-BET-762]
[2]
  production of proinflammatory proteins by macrophages: suppresses the production of proinflammatory proteins

## O=c1cc(N2CCOCC2)oc2c(-c3ccccc3)cccc12 [LY294002]
[3]
  BET inhibition: reported to be a BET inhibitor

B1: HA-tagged NUT (full length) (other)
chain: MASDGASALPGPDMSMKPSAALSPSPALPFLPPTSDPPDHPPREPPPQPIMPSVFSPDNPLMLSAFPSSLLVTGDGGPCLSGAGAGKVIVRVKTEGGSAEPSQTQNFILTQTALNSTAPGTPCGGLEGPAPPFVTASNVKTILPSKAVGVSQEGPPGLPPQPPPPVAQLVPIVPLEKAWPGPHGTTGEGGPVATLSKPSLGDRSKISKDVYENFRQWQRYKALARRHLSQSPDTEALSCFLIPVLRSLARLKPTMTLEEGLPLAVQEWEHTSNFDRMIFYEMAERFMEFEAEEMQIQNTQLMNGSQGLSPATPLKLDPLGPLASEVCQQPVYIPKKAASKTRAPRRRQRKAQRPPAPEAPKEIPPEAVKEYVDIMEWLVGTHLATGESDGKQEEEGQQQEEEGMYPDPGLLSYINELCSQKVFVSKVEAVIHPQFLADLLSPEKQRDPLALIEELEQEEGLTLAQLVQKRLMALEEEEDAEAPPSFSGAQLDSSPSGSVEDEDGDGRLRPSPGLQGAGGAACLGKVSSSGKRAREVHGGQEQALDSPRGMHRDGNTLPSPSSWDLQPELAAPQGTPGPLGVERRGSGKVINQVSLHQDGHLGGAGPPGHCLVADRTSEALPLCWQGGFQPESTPSLDAGLAELAPLQGQGLEKQVLGLQKGQQTGGRGVLPQGKEPLAVPWEGSSGAMWGDDRGTPMAQSYDQNPSPRAAGERDDVCLSPGVWLSSEMDAVGLELPVQIEEVIESFQVEKCVTEYQEGCQGLGSRGMISLGPGETLVPGDTESSVIPCGGTVAAAALEKRNYCSLPGPLRANSPPLRSKENQEQSCETVGHPSDLWAEGCFPLLESGDSTLGSSKETLPPTCQGNLLIMGTEDASSLPEASQEAGSRGSFSPLLETIEPVNILDVKDDCGLQLRVSEDTCPLNVHSYDPQGEGRVDPDLSKPKNLAPLQESQESYTTGTPKATSSHQGLGSTLPRRGTRNAIVPRETSVSKTHRSADRAKGKEKKKKEAEEEDEELSNFAYLLASKLSLSPREHPLSPHHASGGQGSQRASHLLPAGAKGPSKLPYPVAKSGKRALAGGPAPTEKTPHSGAQLGVPREKPLALGVVRPSQPRKRRCDSFVTGRRKKRRRSQ
notes: also called HA-NUT; not shown: N-terminal HA tag
[4]
  binding result: no binding
